# In patent US8399681B2, “Substituted aminothiazolone indazoles as estrogen related receptor-alpha modulators” (Janssen Pharmaceutica NV, priority 2009, dated 2013):
# Biological target: T1, ERR1 (also known as ERR-α or ERR-1) (Homo sapiens, UniProt P11474)
# T1 sequence (P11474 193-421 limits assumed): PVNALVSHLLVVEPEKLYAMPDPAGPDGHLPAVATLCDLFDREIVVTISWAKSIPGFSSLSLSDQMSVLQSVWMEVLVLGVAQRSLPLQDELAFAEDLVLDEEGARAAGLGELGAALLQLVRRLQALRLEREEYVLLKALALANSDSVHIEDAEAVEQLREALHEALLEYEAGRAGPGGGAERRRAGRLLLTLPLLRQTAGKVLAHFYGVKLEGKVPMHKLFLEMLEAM
# Test: TR-FRET assay (disruption of co-activator peptide binding)
# Assay type: biochemical
# Conditions: 6His-tagged ERR1 LBD, GST-hSRC2 co-activator polypeptide; average of 3 independent experiments
# How it was run: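 His6-ERR1 LBD (6 nM) with GST-SRC-2 peptide (6 nM), anti-GST Eu cryptate (30 nM) and anti-His XL665 (7.5 nM) in Tris pH 8/KCl/DTT/BSA buffer, equilibrated 4-18 h at 25 °C. Ex 340, em 615/665 nm; hyperbolic dose-response fit, mean of 3 experiments.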
row,SMILES,EC50
1,"Cc1nnc(C)n1C1CCN(C2=NC(=O)/C(=C/c3ccc4c(cnn4Cc4ccc(Cl)cc4C(F)(F)F)c3)S2)CC1 [Example 147, 5-[1-(4-Chloro-2-trifluoromethyl-benzyl)-1H-indazol-5-ylmethylene]-2-[4-(3,5-dimethyl-[1,2,4]triazol-4-yl)-piperidin-1-yl]-thiazol-4-one]",11 nM
2,"O=C1N=C(N2CCSCC2)S/C1=C\c1ccc2c(cnn2Cc2ccc(Cl)cc2C(F)(F)F)c1 [Example 148, 5-[1-(4-Chloro-2-trifluoromethyl-benzyl)-1H-indazol-5-ylmethylene]-2-thiomorpholin-4-yl-thiazol-4-one]",33 nM
3,"O=C1N=C(N2CC(F)C2)S/C1=C\c1ccc2c(cnn2Cc2ccc(Cl)cc2C(F)(F)F)c1 [Example 149, 5-[1-(4-Chloro-2-trifluoromethyl-benzyl)-1H-indazol-5-ylmethylene]-2-(3-fluoro-azetidin-1-yl)-thiazol-4-one]",55 nM
4,"O=C1N=C(N2CCC(n3cnnn3)CC2)S/C1=C\c1ccc2c(cnn2Cc2ccc(Cl)cc2C(F)(F)F)c1 [Example 150, 5-[1-(4-Chloro-2-trifluoromethyl-benzyl)-1H-indazol-5-ylmethylene]-2-(4-tetrazol-1-yl-piperidin-1-yl)-thiazol-4-one]",48 nM
5,"COC(=O)CCNC(=O)C1CN(C2=NC(=O)/C(=C/c3ccc4c(cnn4Cc4ccc(Cl)cc4C(F)(F)F)c3)S2)C1 [Example 152, 3-[(1-{5-[1-(4-Chloro-2-trifluoromethyl-benzyl)-1H-indazol-5-ylmethylene]-4-oxo-4,5-dihydro-thiazol-2-yl}-azetidine-3-carbonyl)-amino]-propionic acid methyl ester]",24 nM
6,"NC1(C(=O)O)CCN(C2=NC(=O)/C(=C/c3ccc4c(cnn4Cc4ccc(Cl)cc4C(F)(F)F)c3)S2)CC1 [Example 154, 4-Amino-1-{5-[1-(4-chloro-2-trifluoromethyl-benzyl)-1H-indazol-5-ylmethylene]-4-oxo-4,5-dihydro-thiazol-2-yl}-piperidine-4-carboxylic acid]",26.2 nM
7,"O=C1N=C(N2CCC(n3cccn3)CC2)S/C1=C\c1ccc2c(cnn2Cc2ccc(Cl)cc2C(F)(F)F)c1 [Example 157, 5-[1-(4-Chloro-2-trifluoromethyl-benzyl)-1H-indazol-5-ylmethylene]-2-(4-pyrazol-1-yl-piperidin-1-yl)-thiazol-4-one]",35 nM

# Further molecules by falling EC50, results first:
row,EC50,SMILES
1,58 nM,"CCOC(=O)C1(N)CCN(C2=NC(=O)/C(=C/c3ccc4c(cnn4Cc4ccc(Cl)cc4C(F)(F)F)c3)S2)CC1 [Example 156, 4-Amino-1-{5-[1-(4-chloro-2-trifluoromethyl-benzyl)-1H-indazol-5-ylmethylene]-4-oxo-4,5-dihydro-thiazol-2-yl}-piperidine-4-carboxylic acid ethyl ester]"
2,44 nM,"COC(=O)CCNC(=O)C1CN(C2=NC(=O)/C(=C/c3ccc4c(cnn4Cc4ccc(C(F)(F)F)cc4C(F)(F)F)c3)S2)C1 [Example 153, 3-[(1-{5-[1-(2,4-Bis-trifluoromethyl-benzyl)-1H-indazol-5-ylmethylene]-4-oxo-4,5-dihydro-thiazol-2-yl}-azetidine-3-carbonyl)-amino]-propionic acid methyl ester]"
3,34 nM,"CC(=O)N(C)C1CCN(C2=NC(=O)/C(=C/c3ccc4c(cnn4Cc4ccc(Cl)cc4C(F)(F)F)c3)S2)CC1 [Example 155, N-(1-{5-[1-(4-Chloro-2-trifluoromethyl-benzyl)-1H-indazol-5-ylmethylene]-4-oxo-4,5-dihydro-thiazol-2-yl}-piperidin-4-yl)-N-methyl-acetamide]"
4,25.7 nM,"O=C1N=C(N2CCNCC(O)C2)S/C1=C\c1ccc2c(cnn2Cc2ccc(C(F)(F)F)cc2C(F)(F)F)c1 (centres unmarked) [Example 151, 5-[1-(2,4-Bis-trifluoromethyl-benzyl)-1H-indazol-5-ylmethylene]-2-(6-hydroxy-[1,4]diazepan-1-yl)thiazol-4-one]"
